From US11834391B2, “Pantothenamide analogues” (MMV MEDICINES FOR MALARIA VENTURE, priority 2018, dated 2023)

What was measured:
[1] = test system: P. falciparum NF54 asexual blood stage parasites; assay: Replication assay for asexual blood-stage parasites (SYBR Green); assay type: cell-based; details: Plasmodium falciparum; P. falciparum NF54, 72 h incubation, 10% human serum; average of at least two replicate experiments; read-out: antimalarial IC50 asexual blood stages
Description: (§1) Plasmodium falciparum strain NF54 was cultured in Roswell Park Memorial Institute (RPMI) 1640 medium supplemented with 25 mM NaHCO3, 10% human type A serum and 5% (v/v) human type 0 red blood cells (Sanquin, the Netherlands). Replication assays for asexual blood-stage parasites were performed by diluting parasites in RPMI1640 medium with 10% human serum to a parasitemia of 0.83% and a hematocrit of 3%. 30 μl of diluted parasites were combined with 30 μl of compound serially diluted in DMSO and RPMI1640 medium to reach a final DMSO concentration of 0.1% in a total assay volume of 60 μL. Following a 72 h incubation at 37 ° C., 3% O2, 4% CO2, 30 μL of diluted SYBR® Green reagent was added according to the instructions of the manufacturer (Life Technologies) and fluorescence intensity was quantified using a Biotek Synergy® 2 plate reader. Gametocyte viability assays were initiated by inoculating a culture flask with 1% asexual blood-stage parasites in 5% haematocrit in RPMI1640 medium with 10% human serum. From day 4 to day 9 after inoculation, cultures were treated with 50 mM N-acetylglucosamine to eliminate asexual blood-stage parasites. At day 11 post inoculation, gametocytes (predominantly stage IV) were isolated by Percoll® density gradient centrifugation. Gametocytes were seeded at a density of 5,000 cells/well in a 384 well plate and combined with compound diluted in DMSO and subsequently in RPMI1640 medium to reach a final DMSO concentration of 0.1% in a volume of 60 μL RPMI1640 medium with 10% human serum. Following a 72 h incubation at 37 ° C., 3% O2, 4% CO2, 30 μL of ONE-Glo® reagent (Promega) was added and luminescence was quantified using a Biotek Synergy 2 reader. IC50 values were derived by fitting a four parameter logistic regression model to the data using least squares to find the best fit.

[2] = test system: P. falciparum NF54 gametocytes; assay: Gametocyte viability assay (ONE-Glo luminescence); assay type: cell-based; details: Plasmodium falciparum; P. falciparum NF54 gametocytes (predominantly stage IV), 72 h incubation, 10% human serum; average of at least two replicate experiments; read-out: antimalarial IC50 gametocytes
Description: as §1

[3] = Metabolic stability in human primary hepatocytes (hepatocyte relay assay); assay type: in vitro ADME; details: primary hepatocytes (hepatocyte relay assay), human primary hepatocytes, relay assay, 10 μM, average of two replicate experiments; for half-life at 10 μM: read-out: T½ average
Description: (§2) Metabolic stability of compounds of the invention was assessed in a hepatocyte relay assay. Human primary hepatocytes (Xenotech) were cultured in collagen coated 96-well plates in Williams E (Gibco® 32551087) supplemented with 1% PenStrep (Gibco 15140-122), 1% Fungizone® (Gibco 15290026), 10% heat-inactivated fetal bovine serum (hiFBS) (Gibco 10270-106), 0.1 IU/ml insulin (Sigma 12643) and 7μM hydrocortisone hemisuccinate (Sigma H2270) at 37° C. and 5% CO2. Test compounds were added to a final concentration of 10 μM in 0.1 DMSO. Every 24 hours, the cell supernatant was transferred to freshly plated, metabolically full active cells. At regular time intervals, aliquots of supernatants were frozen for future analysis. At the end of the incubation, all samples were thawed and compound levels in time were determined by LC-MS analyses. Data were analysed by linear regression.

[4] = test system: P. falciparum strain Pf3D70087/N9; assay: In vivo antimalarial activity in humanized mouse model for P. falciparum infection; design: species or system Plasmodium falciparum
Description: Reduction of existing parasitemia in vivo was investigated using a humanized mouse model for P. falciparum infection. Female NODscidIL2Rynull mice were engrafted by daily intravenous injection of 0.6 ml of human blood for 11 days. Subsequently, mice were infected with P. falciparum strain Pf3D70087/N9 by injecting 2.10^7 parasites in a volume of 0.2 ml. Four days post infection, mice were treated with a single 50 mg/kg dose of test compound. To this end, compounds were formulated in 70% Tween®-80 (d=1.08g/ml) and 30% ethanol (d=0.81g/ml), followed by a 10-fold dilution in H2O and administered by oral gavage. Parasitemia was followed by daily collection of 2 μl tail blood. The hematocrit was determined by fluorescence-activated cell sorting (FACS) and parasitemia by microscopy on >10,000 red blood cells. […] The compounds indicated at the legend were dosed as a single oral dose of 50 mg/kg at day 4 post infection (indicated by the arrow) and parasitemia was followed for another three days. The data shown in FIG. 1 indicate that all pantothenamide analogues tested show a dramatic reduction in blood stage parasitemia at a single oral dose of 50 mg/kg.

[5] = test system: Human primary hepatocytes; assay: Metabolic stability in human primary hepatocytes (hepatocyte relay assay); assay type: in vitro ADME; details: comparative example
Description: as §2

[6] = female NODscidIL2Rγnull mice, single oral dose 50 mg/kg at day 4 post infection
[7] = same protocol as example 16, relay assay

Q: Which IC50 [1] does the source give for C[C@@H](CNC(=O)[C@H](O)C(C)(C)CO)NC(=O)c1cccc(Cl)c1 [Compound F1, (2R)-N-[(2S)-2-[(3-chlorophenyl)formamido]propyl]-2,4-dihydroxy-3,3-dimethylbutanamide] here?
A: 2.1 nM

Q: And the IC50 [2]?
A: 0.4 nM

Q: For C[C@@H](CNC(=O)[C@H](O)C(C)(C)CO)NC(=O)c1cc(C#N)ccc1F [Compound B1, (2R)-N-[(2S)-2-[(5-cyano-2-fluorophenyl)formamido]propyl]-2,4-dihydroxy-3,3-dimethylbutanamide], which IC50 [1] is on record?
A: 6.2 nM

Q: And the IC50 [2]?
A: 21.4 nM

Q: And the hepatocyte CLint at 10 μM [3]?
A: 0.2 µL/min/1e6 cells

Q: And the half-life at 10 μM [3]?
A: 107 h

Q: And the “In vivo efficacy log reduction in parasitemia in Pf SCID mouse at 50 mg/kg p.o. 1 × QD” value [4, 6]?
A: 2.4

Q: For C[C@@H](CNC(=O)[C@H](O)C(C)(C)CO)NC(=O)c1cc(F)c(F)cc1F [Compound A1, (2R)-2,4-dihydroxy-3,3-dimethyl-N-[(2S)-2-[(2,4,5-trifluorophenyl)formamido]propyl]butanamide], which IC50 [1] is on record?
A: 2.4 nM

Q: What about the IC50 [2] of the same compound?
A: 8 nM

Q: And the hepatocyte CLint at 10 μM [3]?
A: 0.4 µL/min/1e6 cells

Q: And the half-life at 10 μM [3]?
A: 59.4 h

Q: And the “In vivo efficacy log reduction in parasitemia in Pf SCID mouse at 50 mg/kg p.o. 1 × QD” value [4, 6]?
A: >3

Q: For C[C@H](CNC(=O)[C@@H](O)C(C)(C)CO)NC(=O)CCc1ccccc1F [MMV689258, reference compound], which “metabolic stability compared with the compounds of the invention (in words)” value [5] is on record?
A: substantially lower

Q: And the “Metabolic stability in human hepatocytes Clint” value [5, 7]?
A: 0.8 μl/min/10^6 cells

Q: What about the “Metabolic stability in human hepatocytes T½” value [5, 7] of the same compound?
A: 29.403 h

Q: And the “in vivo efficacy compared with the compounds of the invention (in words)” value ([4]; comparative example)?
A: substantially less efficacious

Q: What about the “In vivo efficacy log reduction in parasitemia in Pf SCID mouse at 50 mg/kg p.o. 1 × QD” value ([4]; comparative example, same protocol as example 17, female NODscidIL2Rγnull mice) of the same compound?
A: 1.5

Q: Which IC50 [1] does the source give for C[C@@H](CNC(=O)[C@H](O)C(C)(C)CO)NC(=O)c1cc(Cl)c(F)cc1F [Compound D1, (2R)-N-[(2S)-2-[(5-chloro-2,4-difluorophenyl)formamido]propyl]-2,4-dihydroxy-3,3-dimethylbutanamide] here?
A: 2.3 nM

Q: What about the IC50 [2] of the same compound?
A: 0.4 nM

Q: For C[C@@H](CNC(=O)[C@H](O)C(C)(C)CO)NC(=O)c1cccc(F)c1 [Compound E1, (2R)-N-[(2S)-2-[(3-fluorophenyl)formamido]propyl]-2,4-dihydroxy-3,3-dimethylbutanamide], which IC50 [1] is on record?
A: 1.9 nM

Q: What about the IC50 [2] of the same compound?
A: 2 nM

Q: And the hepatocyte CLint at 10 μM [3]?
A: 0.5 µL/min/1e6 cells

Q: And the half-life at 10 μM [3]?
A: 42.2 h

Q: What about the “In vivo efficacy log reduction in parasitemia in Pf SCID mouse at 50 mg/kg p.o. 1 × QD” value [4, 6] of the same compound?
A: >3

Q: With C[C@@H](CNC(=O)[C@H](O)C(C)(C)CO)NC(=O)c1ccc(F)c(Cl)c1 [Compound G1, (2R)-N-[(2S)-2-[(3-chloro-4-fluorophenyl)formamido]propyl]-2,4-dihydroxy-3,3-dimethylbutanamide] as the compound, how does the IC50 [1] read?
A: 3.4 nM

Q: What about the IC50 [2] of the same compound?
A: 0.2 nM

Q: What does the source list for C[C@@H](CNC(=O)[C@H](O)C(C)(C)CO)NC(=O)c1cccc(C#N)c1 [Compound C1, (2R)-N-[(2S)-2-[(3-cyanophenyl)formamido]propyl]-2,4-dihydroxy-3,3-dimethylbutanamide]?
A: IC50 [1]: 7.4 nM; IC50 [2]: 2.2 nM; hepatocyte CLint at 10 μM [3]: 0.3 µL/min/1e6 cells; half-life at 10 μM [3]: 84.1 h; In vivo efficacy log reduction in parasitemia in Pf SCID mouse at 50 mg/kg p.o. 1 × QD [4, 6]: >3
